What all share (type): cell-based
One assay addresses T1, ATR kinase (Homo sapiens, UniProt Q13535).
T1 construct: endogenous in cells; host or cells: HT29 cells (ECACC #85061109)
The assay can be described thus: Assay b): ATR cellular potency (pChk1 Ser345 in HT29 cells after 4NQO). The gist of the method: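 HT29 cells were preincubated with compound for 1 h at 37 °C, 5% CO2, then stimulated with 4NQO for a further 1 h; wells without 4NQO served as the null control. Cells permeabilised with 0.1% Triton X-100. Chk1 Ser345 phosphorylation imaged on ArrayScan VTI at 10× objective.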

Another assay concerns the target PI3K-α (Homo sapiens, UniProt P42336). Briefly: Assay c): PI3K cellular potency (phospho-Akt T308 ELISA in BT474 cells). To be noted: for IC50: BT474 cells, phospho-Akt T308, 2 h; Table 2; read-out: Assay c) PI3Kα Cell IC50; for Assay c) PI3Ka Cell IC50: BT474 cells, phospho-Akt T308, 2 h, Table 3 comparative data. The text has this:
This assay was used to measure PI3K-α inhibition in cells. PDK1 was identified as the upstream activation loop kinase of protein kinase B (Akt1), which is essential for the activation of PKB. Activation of the lipid kinase phosphoinositide 3 kinase (PI3K) is critical for the activation of PKB by PDK1.
Following ligand stimulation of receptor tyrosine kinases, PI3K is activated, which converts PIP2 to PIP3, which is bound by the PH domain of PDK1 resulting in recruitment of PDK1 to the plasma membrane where it phosphorylates AKT at Thr308 in the activation loop.
The aim of this cell-based mode of action assay is to identify compounds that inhibit PDK activity or recruitment of PDK1 to membrane by inhibiting PI3K activity. Phosphorylation of phospho-Akt (T308) in BT474c cells following treatment with compounds for 2 h is a direct measure of PDK1 and indirect measure of PI3K activity.
BT474 cells (human breast ductal carcinoma, ATCC HTB-20) were seeded into black 384 well plates (Costar, #3712) at a density of 5600 cells/well in DMEM containing 10% FBS and 1% glutamine and allowed to adhere overnight.
The following morning compounds in 100% DMSO were added to assay plates by acoustic dispensing. After a 2 h incubation at 37° C. and 5% CO2, the medium was aspirated and the cells were lysed with a buffer containing 25 mM Tris, 3 mM EDTA, 3 mM EGTA, 50 mM sodium fluoride, 2 mM Sodium orthovanadate, 0.27M sucrose, 10 mM β-glycerophosphate, 5 mM sodium pyrophosphate, 0.5% Triton X-100 and complete protease inhibitor cocktail tablets (Roche #04 693 116 001, used 1 tab per 50 ml lysis buffer).
After 20 minutes, the cell lysates were transferred into ELISA plates (Greiner #781077) which had been pre-coated with an anti total-AKT antibody in PBS buffer and non-specific binding was blocked with 1% BSA in PBS containing 0.05% Tween 20. Plates were incubated over night at 4° C. The next day the plates were washed with PBS buffer containing 0.05% Tween 20 and further incubated with a mouse monoclonal anti-phospho AKT T308 for 2 h. Plates were washed again as above before addition of a horse anti-mouse-HRP conjugated secondary antibody. Following a 2 h incubation at r.t., plates were washed and QuantaBlu substrate working solution (Thermo Scientific #15169, prepared according to provider's instructions) was added to each well. The developed fluorescent product was stopped after 60 minutes by addition of Stop solution to the wells. Plates were read using a Tecan Safire plate reader using 325 nm excitation and 420 nm emission wavelengths respectively. Except where specified, reagents contained in the Path Scan Phospho AKT (Thr308) sandwich ELISA kit from Cell Signalling (#7144) were used in this ELISA assay.
For orientation: An ELISA detects its analyte on a solid surface through an enzyme-linked reagent.

Another assay addresses T2, mTOR (Homo sapiens, UniProt P42345).
T2 construct: phosphorylation of the Akt protein at Ser473 (AKT lies downstream of PI3Kα in the signal transduction pathway) in the MDA-MB-468 cells; endogenous in cells; host or cells: MDA-MB-468 cells (ATCC HTB 132)
Briefly: Assay d): mTOR cellular potency (phospho-AKT Ser473 in MDA-MB-468 cells). As for the experimental part: This assay was used to measure mTOR inhibition in cells. The aim of the phospho-AKT cell based mechanism of action assay using the Acumen Explorer is to identify inhibitors of either PI3Kα or mTOR-Rictor (Rapamycin insensitive companion of mTOR). This is measured by any decrease in the phosphorylation of the Akt protein at Ser473 (AKT lies downstream of PI3Kα in the signal transduction pathway) in the MDA-MB-468 cells following treatment with compound.
MDA-MB-468 cells (human breast adenocarcinoma #ATCC HTB 132) were seeded at 1500 cells/well in 40 μl of DMEM containing 10% FBS and 1% glutamine into Greiner 384 well black flat-bottomed plates. Cell plates were incubated for 18 h in a 37° C. incubator before dosing with compounds of Formula (I) in 100% DMSO using acoustic dispensing. Compounds were dosed in a 12 point concentration range into a randomised plate map. Control wells were generated either by dosing of 100% DMSO (max signal) or addition of a reference compound (a PI3K-βinhibitor) that completely eliminated the pAKT signal (min control). Plates were incubated at 37° C. for 2 h; cells were then fixed by the addition of 10 μl of a 3.7% formaldehyde solution. After 30 minutes the plates were washed with PBS using a Tecan PW384 plate washer. Wells were blocked and cells permeabilised with the addition of 40 μl of PBS containing 0.5% Tween20 and 1% Marvel™ (dried milk powder) and incubated for 60 minutes at r.t. The plates were washed with PBS containing 0.5% (v/v) Tween20 and 20 μl rabbit anti-phospho AKT Ser473 (Cell Signalling Technologies, #3787) in same PBS-Tween+1% Marvel™ was added and incubated overnight at 4° C.
Plates were washed 3 times with PBS+0.05% Tween 20 using a Tecan PW384. 20 μl of secondary antibody Alexa Fluor 488 anti-Rabbit (Molecular Probes, #A11008) diluted in PBS+0.05% Tween20 containing 1% Marvel™ was added to each well and incubated for 1 h at r.t. Plates were washed three times as before then 20 μl PBS added to each well and plates sealed with a black plate sealer.
The plates were read on an Acumen plate reader as soon as possible, measuring green fluorescence after excitation with 488 nm laser. Using this system IC50 values were generated and quality of plates was determined by control wells. Reference compounds were run each time to monitor assay performance.

The target of a further assay is T3, ATM kinase (Homo sapiens, UniProt Q13315).
T3 construct: endogenous in cells; host or cells: HT29 cells (ECACC #85061109)
The assay can be described thus: Assay a): ATM cellular potency (pATM Ser1981 in irradiated HT29 cells). The gist of the method:
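HT29 cells pretreated with compound for 1 h at 37° C, X-ray irradiated (~600 cGy), then incubated 1 h more. Cells fixed, Triton-permeabilised and immunostained for pATM Ser1981; fluorescence quantified by ArrayScan high-content imaging.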

The mark [1] stands for this setting: HT29 cells, 4NQO, pChk1 Ser345; Table 2; read-out: Assay b) ATR Cell IC50.
[2] abbreviates: MDA-MB-468 cells, phospho-AKT Ser473, 2 h; Table 3 comparative data; read-out: Assay d) mTOR Cell IC50.
[3] abbreviates: HT29 cells, 4NQO, pChk1 Ser345; Table 3 comparative data; read-out: Assay b) ATR Cell IC50.
Setting [4] is: HT29 cells, X-ray irradiation, pATM Ser1981; Table 3 comparative data; read-out: Assay a) ATM Cell IC50.
[5] abbreviates: MDA-MB-468 cells, phospho-AKT Ser473, 2 h; Table 2; read-out: Assay d) mTOR Cell IC50.
[6] abbreviates: HT29 cells, X-ray irradiation, pATM Ser1981; Table 2; read-out: Assay a) ATM Cell IC50.

The text below walks through data of patent US20180318287A1, “Imidazo[4,5-c]quinolin-2-one Compounds and Their Use in Treating Cancer” (ASTRAZENECA AB, priority 2015, published 2018).

The structures appear in SMILES notation. Like-named read-outs stand apart in the source and are kept apart here.

T1 sequence (Q13535 whole entry): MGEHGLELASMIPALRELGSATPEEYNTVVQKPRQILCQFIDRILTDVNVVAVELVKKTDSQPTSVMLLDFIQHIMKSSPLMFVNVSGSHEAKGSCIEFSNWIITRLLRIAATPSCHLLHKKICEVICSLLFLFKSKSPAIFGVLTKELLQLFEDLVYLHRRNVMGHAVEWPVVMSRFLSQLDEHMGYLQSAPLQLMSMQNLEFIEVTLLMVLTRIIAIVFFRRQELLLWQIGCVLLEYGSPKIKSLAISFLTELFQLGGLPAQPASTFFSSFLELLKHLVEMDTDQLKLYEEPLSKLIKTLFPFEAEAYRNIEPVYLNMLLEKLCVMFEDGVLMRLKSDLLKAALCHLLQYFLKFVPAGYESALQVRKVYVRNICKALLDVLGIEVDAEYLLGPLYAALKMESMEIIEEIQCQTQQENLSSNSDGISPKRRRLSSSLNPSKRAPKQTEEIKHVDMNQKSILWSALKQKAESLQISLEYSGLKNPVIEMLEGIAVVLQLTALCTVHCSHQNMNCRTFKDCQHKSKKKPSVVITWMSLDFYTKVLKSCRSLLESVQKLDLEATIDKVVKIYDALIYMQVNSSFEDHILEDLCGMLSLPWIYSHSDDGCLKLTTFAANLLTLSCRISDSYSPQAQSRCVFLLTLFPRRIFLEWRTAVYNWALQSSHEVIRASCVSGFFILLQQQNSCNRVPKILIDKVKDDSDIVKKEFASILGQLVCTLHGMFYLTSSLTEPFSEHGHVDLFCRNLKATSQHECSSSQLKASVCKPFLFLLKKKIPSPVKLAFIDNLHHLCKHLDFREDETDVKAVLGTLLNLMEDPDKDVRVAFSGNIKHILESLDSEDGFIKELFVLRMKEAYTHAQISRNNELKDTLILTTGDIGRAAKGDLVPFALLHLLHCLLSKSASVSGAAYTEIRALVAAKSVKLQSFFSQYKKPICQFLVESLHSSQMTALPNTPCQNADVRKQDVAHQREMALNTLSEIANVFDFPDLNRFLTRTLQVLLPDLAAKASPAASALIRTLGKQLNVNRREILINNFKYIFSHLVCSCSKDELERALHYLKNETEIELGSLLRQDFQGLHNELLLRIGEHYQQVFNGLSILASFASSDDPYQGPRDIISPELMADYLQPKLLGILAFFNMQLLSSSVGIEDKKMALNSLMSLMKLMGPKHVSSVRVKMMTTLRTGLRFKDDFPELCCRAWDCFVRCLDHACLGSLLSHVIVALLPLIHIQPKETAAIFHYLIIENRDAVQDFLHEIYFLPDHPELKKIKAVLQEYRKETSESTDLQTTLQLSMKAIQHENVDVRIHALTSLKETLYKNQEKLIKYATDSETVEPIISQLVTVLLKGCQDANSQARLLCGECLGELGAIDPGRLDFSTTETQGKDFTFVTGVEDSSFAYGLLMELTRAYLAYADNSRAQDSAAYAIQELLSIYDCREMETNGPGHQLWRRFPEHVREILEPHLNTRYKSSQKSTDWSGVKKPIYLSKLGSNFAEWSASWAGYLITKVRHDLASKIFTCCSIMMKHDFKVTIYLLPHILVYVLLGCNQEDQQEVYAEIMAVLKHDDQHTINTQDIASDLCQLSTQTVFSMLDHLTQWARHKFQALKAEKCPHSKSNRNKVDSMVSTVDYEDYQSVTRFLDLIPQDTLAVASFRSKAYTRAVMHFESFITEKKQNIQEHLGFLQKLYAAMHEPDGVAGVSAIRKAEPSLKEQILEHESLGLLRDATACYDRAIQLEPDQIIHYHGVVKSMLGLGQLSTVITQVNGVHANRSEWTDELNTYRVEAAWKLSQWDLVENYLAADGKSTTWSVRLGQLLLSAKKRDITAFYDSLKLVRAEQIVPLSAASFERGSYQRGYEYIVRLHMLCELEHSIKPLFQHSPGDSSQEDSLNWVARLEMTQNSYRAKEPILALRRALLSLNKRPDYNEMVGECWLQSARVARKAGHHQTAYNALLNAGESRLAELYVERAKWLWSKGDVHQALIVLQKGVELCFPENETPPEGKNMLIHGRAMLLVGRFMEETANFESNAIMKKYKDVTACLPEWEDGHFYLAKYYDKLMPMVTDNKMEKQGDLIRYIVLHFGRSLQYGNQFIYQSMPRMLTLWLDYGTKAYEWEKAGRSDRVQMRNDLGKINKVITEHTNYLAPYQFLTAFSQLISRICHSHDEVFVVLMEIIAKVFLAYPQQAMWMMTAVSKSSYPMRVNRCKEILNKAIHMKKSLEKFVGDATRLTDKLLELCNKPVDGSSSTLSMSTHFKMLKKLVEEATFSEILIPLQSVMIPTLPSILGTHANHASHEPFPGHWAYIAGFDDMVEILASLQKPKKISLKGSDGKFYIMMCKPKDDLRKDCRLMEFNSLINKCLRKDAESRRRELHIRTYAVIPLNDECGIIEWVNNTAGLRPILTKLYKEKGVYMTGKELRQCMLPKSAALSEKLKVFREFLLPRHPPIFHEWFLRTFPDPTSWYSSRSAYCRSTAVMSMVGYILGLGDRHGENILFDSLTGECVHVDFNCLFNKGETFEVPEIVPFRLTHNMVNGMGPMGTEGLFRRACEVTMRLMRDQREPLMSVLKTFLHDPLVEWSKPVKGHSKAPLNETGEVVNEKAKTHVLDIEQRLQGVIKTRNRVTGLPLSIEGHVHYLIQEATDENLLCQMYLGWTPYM
T1 sequence (Q8WXE1 whole entry partner): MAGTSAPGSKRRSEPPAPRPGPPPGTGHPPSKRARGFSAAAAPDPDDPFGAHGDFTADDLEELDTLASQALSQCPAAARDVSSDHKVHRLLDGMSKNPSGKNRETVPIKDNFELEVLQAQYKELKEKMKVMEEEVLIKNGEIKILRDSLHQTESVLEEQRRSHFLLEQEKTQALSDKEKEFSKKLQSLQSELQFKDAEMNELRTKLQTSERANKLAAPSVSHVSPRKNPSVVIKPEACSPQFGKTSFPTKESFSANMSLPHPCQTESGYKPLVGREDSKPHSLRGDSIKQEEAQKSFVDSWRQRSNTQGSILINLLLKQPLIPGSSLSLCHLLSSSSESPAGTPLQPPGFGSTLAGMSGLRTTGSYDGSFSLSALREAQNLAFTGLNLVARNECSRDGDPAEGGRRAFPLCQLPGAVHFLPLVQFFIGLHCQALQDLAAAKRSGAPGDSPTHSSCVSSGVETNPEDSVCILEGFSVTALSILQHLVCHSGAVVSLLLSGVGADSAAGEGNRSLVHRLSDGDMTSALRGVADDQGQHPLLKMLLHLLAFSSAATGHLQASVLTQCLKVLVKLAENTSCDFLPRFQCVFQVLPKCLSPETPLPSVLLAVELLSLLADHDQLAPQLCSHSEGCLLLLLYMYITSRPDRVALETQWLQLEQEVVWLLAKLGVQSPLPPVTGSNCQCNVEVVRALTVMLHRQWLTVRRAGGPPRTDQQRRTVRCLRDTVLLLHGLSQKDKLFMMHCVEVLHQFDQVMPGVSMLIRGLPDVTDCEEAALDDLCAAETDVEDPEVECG

As a reminder, the IC50 is the concentration that gives 50% inhibition. As to `CN(C)CCCOc1ccc(-c2ccc3ncc4c(c3c2)n([C@H]2CCCOC2)c(=O)n4C)cc1` [Example 9, 8-[4-[3-(dimethylamino)propoxy]phenyl]-3-methyl-1-[(3S)-tetrahydropyran-3-yl]imidazo[4,5-c]quinolin-2-one], the results for the IC50 at ATR kinase (setting [1]) and at PI3K-α were greater than 30 µM and 15.2 µM, respectively.
Consider `Cn1c(=O)n(C2CC2)c2c3cc(-c4cnc5[nH]ccc5c4)ccc3ncc21` [CN102399218A Compound 62, reference compound], for which the IC50 on mTOR (setting [2]) was 0.0155 µM; on ATR kinase (setting [3]) it was 0.0563 µM; on ATM kinase (setting [4]), 0.08 µM. Further, the “Assay c) PI3Ka Cell IC50” value at PI3K-α was 0.149 µM.
The matching figures for `Cn1c(=O)n(C2CCOCC2)c2c3cc(-c4cnc(N)nc4)ccc3ncc21` [CN102399218A Compound 94, reference compound]: 0.0414 µM, 0.0129 µM, 0.494 µM and 0.0804 µM.
In the case of `CN(C)CCCOc1ccc(-c2ccc3ncc4c(c3c2)n([C@@H]2CCCOC2)c(=O)n4C)cc1` [Example 8, 8-[4-[3-(dimethylamino)propoxy]phenyl]-3-methyl-1-[(3R)-tetrahydropyran-3-yl]imidazo[4,5-c]quinolin-2-one], the IC50 at mTOR (setting [5]) was 1.42 µM; at ATR kinase (setting [1]), greater than 30 µM; on PI3K-α it was 0.311 µM.
For `CC(C)n1c(=O)n(C)c2cnc3ccc(-c4ccc(OCCN(C)C)cc4)cc3c21` [Example 5, 8-[4-[2-(Dimethylamino)ethoxy]phenyl]-1-isopropyl-3-methyl-imidazo[4,5-c]quinolin-2-one], the IC50 on ATR kinase (setting [1]) was greater than 30 µM; on PI3K-α, greater than 26.9 µM; at ATM kinase (setting [6]), 0.0148 µM.
For the compound `COc1ncc(-c2ccc3ncc4c(c3c2)n(C2CC2)c(=O)n4C)cc1NS(=O)(=O)C1CC1` [CN102399218A Compound 114, reference compound], the IC50 at mTOR (setting [2]) turned out to be 0.0469 µM; on ATR kinase (setting [3]), 0.0686 µM; on ATM kinase (setting [4]) it was 0.0741 µM. Further, the “Assay c) PI3Ka Cell IC50” value at PI3K-α came to 0.0131 µM.
Regarding `CN(C)CCOc1ccc(-c2ccc3ncc4c(c3c2)n([C@H]2CCCOC2)c(=O)n4C)cc1` [Example 47, 8-[4-[2-(Dimethylamino)ethoxy]phenyl]-3-methyl-1-[(3S)-tetrahydropyran-3-yl]imidazo[4,5-c]quinolin-2-one], the IC50 at mTOR (setting [5]) was 5.53 µM; at ATR kinase (setting [1]), greater than 30 µM; at PI3K-α it was greater than 30 µM; on ATM kinase (setting [6]) it was 0.0144 µM.
On to `Cn1c(=O)n(C2CC2)c2c3cc(-c4cnc(N)nc4)ccc3ncc21` [CN102399218A Compound 64, reference compound], for which the IC50 at mTOR (setting [2]) turned out to be 0.287 µM; at ATR kinase (setting [3]), 0.162 µM; on ATM kinase (setting [4]), 0.216 µM. Besides, the “Assay c) PI3Ka Cell IC50” value at PI3K-α was 0.247 µM.
As for `CO[C@H]1C[C@@H](n2c(=O)n(C)c3cnc4cc(F)c(-c5ccc(OCCCN(C)C)cc5)cc4c32)C1` [Example 12, 8-[4-[3-(dimethylamino)propoxy]phenyl]-7-fluoro-1-(cis3-methoxycyclobutyl)-3-methyl-imidazo[4,5-c]quinolin-2-one], the IC50 is 5.56 µM at mTOR (setting [5]), greater than 30 µM on ATR kinase (setting [1]), 20.4 µM on PI3K-α and 0.00188 µM at ATM kinase (setting [6]).
For the compound `CC(C)n1c(=O)n(C)c2cnc3cc(F)c(-c4ccc(OCCCN5CCC5)cc4)cc3c21` [Example 4, 8-[4-[3-(azetidin-1-yl)propoxy]phenyl]-7-fluoro-1-isopropyl-3-methyl-imidazo[4,5-c]quinolin-2-one], the half-maximal inhibitory concentration (IC50) on mTOR (setting [5]) was 9.12 µM; on ATR kinase (setting [1]) it was greater than 30 µM; at ATM kinase (setting [6]), 0.00664 µM.
In the case of `Cn1c(=O)n(C2CNC2)c2c3cc(-c4cnc5[nH]ccc5c4)ccc3ncc21` [CN102399218A Compound 61, reference compound], the IC50 at mTOR (setting [2]) turned out to be 0.177 µM; on ATR kinase (setting [3]) it was 1.48 µM; on ATM kinase (setting [4]), 3.46 µM. On PI3K-α, the “Assay c) PI3Ka Cell IC50” value stood at 1.73 µM.
For `COc1ccc(-c2ccc3ncc4c(c3c2)n(C2CCN(C(C)=O)CC2)c(=O)n4C)cn1` [CN102372711A Compound 5, reference compound], in that order: 0.113 µM, 0.0644 µM, 0.0265 µM and 0.153 µM.
`COc1ccc(-c2ccc3ncc4c(c3c2)n(C2CCNCC2)c(=O)n4C)cn1` [CN102372711A Compound 1, reference compound]: the values for the IC50 on mTOR (setting [2]) and on ATR kinase (setting [3]) were 0.237 µM and 0.281 µM, respectively. For the same compound, on PI3K-α, the “Assay c) PI3Ka Cell IC50” value was 0.188 µM.
